Measured values taken from patent US5130474A, “Optically-active derivatives of (R) 5-pentylamino-5-oxopentanoic acid with antagonistic activity towards cholecystokin in and a method for their preparation” (Rotta Research Laboratorium SpA, priority 1987, dated 1992).
Where two headings read alike, the source gives them in different places.

Assays:
[1] = molecular target: T1, cholecystokinin receptors of ox gallbladder membranes (Bos taurus, UniProt A6QLH2); experiment: Inhibition of the binding of [125-I]-Bolton Hunter-CCK-8 to ox gallbladder membranes; conditions: pH 7.4, 2 h at 25° C., read-out: IC50, inhibition of the binding of (^125 I)-(B-H)-CCK-8
T1 construct: The ox gallbladder cell membranes were homogenised with Tris buffer (pH 7.4); from tissue; host or cells: ox gallbladder cell membranes
T1 sequence (A6QLH2 1-427): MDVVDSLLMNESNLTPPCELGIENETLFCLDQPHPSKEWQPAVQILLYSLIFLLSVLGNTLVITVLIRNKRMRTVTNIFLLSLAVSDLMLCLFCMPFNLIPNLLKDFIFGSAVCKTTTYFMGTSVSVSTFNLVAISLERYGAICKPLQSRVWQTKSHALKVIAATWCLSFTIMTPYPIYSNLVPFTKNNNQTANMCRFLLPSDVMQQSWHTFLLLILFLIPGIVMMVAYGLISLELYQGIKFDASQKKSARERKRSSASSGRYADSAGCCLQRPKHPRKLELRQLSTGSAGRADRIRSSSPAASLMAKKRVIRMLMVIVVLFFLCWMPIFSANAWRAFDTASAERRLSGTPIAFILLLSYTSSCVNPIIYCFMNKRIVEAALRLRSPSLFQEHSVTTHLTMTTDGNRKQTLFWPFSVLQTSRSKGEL
Procedure: The ox gallbladder cell membranes were homogenised with Tris buffer (pH 7.4) and the homogenate was centrifuged at 50,000 gravity for 10 minutes. The membranes were then incubated with a radioactive tracer and the compounds under study for 2 h at 25° C.
After the supernatant liquid had been discarded, the radioactivity associated with the pellet was determined with a liquid scintillator. The specific binding was determined as the difference between the binding in the absence and in the presence of 10^-6 M CCK-8.

[2] = tested on: experimental pancreatitis induced by taurocholate; experiment: Pancreatitis induced by sodium taurocholate; format: in vivo, rats; conditions: for ED50: Rattus norvegicus, ip, 6 h
Procedure: The method described by Aho et al. (Scandinavian J. Gastroenterology 15 (1980), 411-16) was followed
Male rats weighing approximately 250 g were subjected to laparatomy and the pancreas exposed. 0.3 ml of a 6% solution of sodium taurocholate was injected directly into the pancreatic tissue.
The products under test were administered intraperitoneally (i.p.) 30 minutes before the operation and 3 hours after the operation. 6 hours after the laparotomy and after anesthesia with ether, blood was removed from the retro-orbital plexus, the animals were killed and the pancreas removed and weighed. The activity of the serum amylase was determined by the Ceska method (Clin. Chim. Acta 26 (1969), 437-444).
The compounds were tested at different doses so as to enable the calculation of the ID50 value, that is the dose (in mg/kg i.p.) which is able to inhibit the toxic effect of the sodium taurocholate by 50%, expressed both as a % inhibition of the increase in weight of the pancreas and as a % inhibition of the increase in serum amylase.

[3] = tested on: gallbladder contraction induced by egg yolk; experiment: Antispastic activity on the gallbladder in mice (gallbladder emptying induced by egg yolk); format: in vivo; conditions: for ED50: Mus musculus, ip, read-out: ID50, antispastic activity on gallbladder contraction induced by egg yolk
Procedure: The emptying of the gallbladder was induced by a single oral administration of 1 ml of a 30% suspension (weight/volume) of lyophilised egg yolk in a physiological solution.
Once it has been absorbed, the egg yolk, as stated above, induces the release of endogenous CCK.
The antagonist compounds were administered intraperitoneally (i.p.) 15 minutes before the contractant.
The % antispastic activity for each dose was calculated by the following formula: [formula] where P1 =average weight of the gallbladders of the group of animals treated with the drug plus the contractant
P2 =average weight of the gallbladders of the group of animals treated with contractant only
P3 =average weight of the gallbladders of the control group of animals.

[4] = tested on: piloric contraction induced by CCK; experiment: Antispastic activity on piloric contraction induced by CCK in rats; format: in vivo, rat; conditions: for ED50: ip, rat, 8 mcg/kg i.p. CCK, compound i.p. 15 minutes before, read-out: ID50, antispastic activity on piloric contraction induced by CCK
Procedure: A dose of 8 mcg/kg i.p. of CCK was used, which induces a sub-maximal contraction of the pilorus.
The antagonistic compounds were administered (i.p.) 15 minutes before the contractant. 10 minutes after the administration of the contractant, the animals were treated per os with 25 ml/kg of H2 O. 5 minutes after this administration, the animals were killed, their stomachs removed and the gastric content measured by removal with a syringe.
The % antispactic activity for each dose administered was calculated from the following formula: [formula] where V1 =the gastric-content volume of the group of animals treated with the drug plus the contractant
V2 =the gastric-content volume of the group of animals treated with the contractant only
V3 =the gastric-content volume of the control group of animals.
The compounds were tested at various doses so as to enable the calculation of the ID50 value, that is the dose (in mg/kg i.p.) which is able to inhibit the contractant effect of CCK by 50%.
The results obtained are given in Table 7, where the effects obtained are expressed as the ID50.

[5] = 5 mg/kg i.p. (second dose of compound 8) + taurocholate
[6] = 5 mg/kg i.p. (third dose of compound 8) + taurocholate
[7] = 30 min before and 3 h after operation, read-out: ID50, inhibition of the increase in serum amylase
[8] = 30 min before and 3 h after operation, read-out: ID50, inhibition of the increase in weight of the pancreas
[9] = mice, i.p. 15 minutes before egg yolk

CCCCCN(CCCCC)C(=O)[C@@H](CCC(=O)O)NC(=O)c1ccc(C)c(C)c1 [Compound 9]
IC50 [1]: 44 nM

CCCCCN(CCCCC)C(=O)[C@@H](CCC(=O)O)NC(=O)c1ccc(Cl)c(Cl)c1 [Compound 8]
% inhibition increase in amylase ([2]; 1 mg/kg i.p. + taurocholate): 40.7% | % inhibition of weight increase (pancreas) ([2]; 1 mg/kg i.p. + taurocholate): 35.3% | % ratio pancreas weight / animal weight ([2]; 1 mg/kg i.p. + taurocholate): 0.48% | Amylase in the serum ([2]; 1 mg/kg i.p. + taurocholate): 12.7 U/ml | % inhibition increase in amylase [2, 5]: 76.5% | % inhibition of weight increase (pancreas) [2, 5]: 52.5% | % ratio pancreas weight / animal weight [2, 5]: 0.45% | Amylase in the serum [2, 5]: 9.8 U/ml | % inhibition increase in amylase [2, 6]: 86.4% | % inhibition of weight increase (pancreas) [2, 6]: 82.3% | % ratio pancreas weight / animal weight [2, 6]: 0.40% | Amylase in the serum [2, 6]: 9.0 U/ml | ED50 [2, 7]: 1.2 mg/kg | ED50 [2, 8]: 1.8 mg/kg | IC50 [1]: 7.5 nM | % inhibition of the emptying of the gallbladder ([3]; 0.1 mg/kg i.p.): 25.2% | % inhibition of the emptying of the gallbladder ([3]; 0.1 mg/kg i.p. as printed (third, highest dose of compound 8)): 86.3% | % inhibition of the emptying of the gallbladder ([3]; 0.3 mg/kg i.p.): 53.2% | ED50 [3, 9]: 0.25 mg/kg | % inhibition of piloric contraction ([4]; 0.03 mg/kg i.p.): 29.8% | % inhibition of piloric contraction ([4]; 0.1 mg/kg i.p.): 48.0% | % inhibition of piloric contraction ([4]; 0.3 mg/kg i.p.): 68.1% | ED50 [4]: 0.11 mg/kg

CCCCCN(CCCCC)C(=O)[C@H](CCC(=O)O)NC(=O)c1ccc(C)c(C)c1 [Compound 15]
IC50 [1]: 2200 nM

CCCCCN(CCCCC)C(=O)[C@@H](CCC(=O)O)NC(=O)c1ccc2ccccc2c1 [Compound 7]
% inhibition increase in amylase ([2]; 0.3 mg/kg i.p. + taurocholate): 42.2% | % inhibition of weight increase (pancreas) ([2]; 0.3 mg/kg i.p. + taurocholate): 36.4% | % ratio pancreas weight / animal weight ([2]; 0.3 mg/kg i.p. + taurocholate): 0.47% | Amylase in the serum ([2]; 0.3 mg/kg i.p. + taurocholate): 12.0 U/ml | % inhibition increase in amylase ([2]; 1 mg/kg i.p. + taurocholate): 79.7% | % inhibition of weight increase (pancreas) ([2]; 1 mg/kg i.p. + taurocholate): 54.5% | % ratio pancreas weight / animal weight ([2]; 1 mg/kg i.p. + taurocholate): 0.45% | Amylase in the serum ([2]; 1 mg/kg i.p. + taurocholate): 9.6 U/ml | % inhibition increase in amylase ([2]; 3 mg/kg i.p. + taurocholate): 89.0% | % inhibition of weight increase (pancreas) ([2]; 3 mg/kg i.p. + taurocholate): 90.8% | % ratio pancreas weight / animal weight ([2]; 3 mg/kg i.p. + taurocholate): 0.41% | Amylase in the serum ([2]; 3 mg/kg i.p. + taurocholate): 9.0 U/ml | ED50 ([2]; both parameters, read-out: dose inhibiting the increase in weight of the pancreas and the increase in serum amylase by 50%): ~0.5 mg/kg | ED50 [2, 7]: 0.4 mg/kg | ED50 [2, 8]: 0.6 mg/kg | IC50 [1]: 1 nM | % inhibition of the emptying of the gallbladder ([3]; 0.025 mg/kg i.p.): 24.0% | % inhibition of the emptying of the gallbladder ([3]; 0.05 mg/kg i.p.): 44.2% | ED50 [3, 9]: 0.05 mg/kg | % inhibition of piloric contraction ([4]; 0.01 mg/kg i.p.): 27.7% | % inhibition of piloric contraction ([4]; 0.03 mg/kg i.p.): 48.8% | % inhibition of piloric contraction ([4]; 0.1 mg/kg i.p.): 80.8% | ED50 [4]: 0.03 mg/kg

CCCCCN(CCCOC)C(=O)[C@H](CCC(=O)O)NC(=O)c1ccc2ccccc2c1 [Compound 16]
IC50 [1]: 560 nM

CCCCCN(CCCOC)C(=O)[C@@H](CCC(=O)O)NC(=O)c1ccc(Cl)c(Cl)c1 [Compound 11]
IC50 [1]: 30 nM

CCK-8: cold (unmarked) CCK [reference compound]
IC50 [1]: 0.2 nM

CCCCCN(CCCCC)C(=O)[C@H](CCC(=O)O)NC(=O)c1ccc2ccccc2c1 [Compound 13]
IC50 [1]: 61 nM | % inhibition of the emptying of the gallbladder ([3]; 1 mg/kg i.p.): 18.8% | % inhibition of the emptying of the gallbladder ([3]; 3 mg/kg i.p.): 47.7% | % inhibition of the emptying of the gallbladder ([3]; 9 mg/kg i.p.): 80.2% | ED50 [3, 9]: 3.2 mg/kg | % inhibition of piloric contraction ([4]; 1 mg/kg i.p.): 17.7% | % inhibition of piloric contraction ([4]; 3 mg/kg i.p.): 39.0% | % inhibition of piloric contraction ([4]; 5 mg/kg i.p.): 54.2% | ED50 [4]: 4.55 mg/kg | active dose, times higher than compound 7 ([4]; piloric contraction): approximately 150 times

CCCCCN(CCCOC)C(=O)[C@@H](CCC(=O)O)NC(=O)c1ccc2ccccc2c1 [Compound 10]
IC50 [1]: 6.2 nM

CCCCCN(CCOCC)C(=O)[C@@H](CCC(=O)O)NC(=O)c1ccc2ccccc2c1 [Compound 12]
IC50 [1]: 9.3 nM

CCCCCN(CCCCC)C(=O)[C@H](CCC(=O)O)NC(=O)c1ccc(Cl)c(Cl)c1 [Compound 14]
IC50 [1]: 450 nM

COc1ccc(Cc2nccc3cc(OC)c(OC)cc23)cc1OC [PAPAVERINE, reference compound]
% inhibition of the emptying of the gallbladder ([3]; 25 mg/kg i.p.): 0% | % inhibition of the emptying of the gallbladder ([3]; 50 mg/kg i.p.): 0% | % inhibition of the emptying of the gallbladder ([3]; 75 mg/kg i.p.): 26.1% | ID50, antispastic activity on gallbladder contraction induced by egg yolk [3, 9]: INACTIVE | antispastic activity on the gallbladder, in words ([3]; only at 75 mg/kg): slightly active
